Experimental data published in patent publication US20190241943A1, “RAPID PHENOTYPING AND IDENTIFICATION OF MICROBES FROM A COMPLEX MICROBIAL COMMUNITY” (Duke University, priority 2018, published 2019).

What was measured:
gut bacteria = assay: Xenobiotic growth screen of gut bacteria for beta-glucuronidases in droplets; format: cell-based, human gut bacteria; details: defined media, glucose positive control, water negative control (FIG. 6)
Text: Thus, in certain aspects of this disclosure, the methods of the invention can be used to identify or screen bacteria from the gut that can utilize, and thus inactivate, specific xenobiotic compounds. In certain embodiments of this aspect, the methods of the invention can be used to screen gut bacteria for beta-glucuronidases, which are present in bacteria that can inactivate certain man-made therapeutics. […] (FIG. 6). […] Thus, in some embodiments, the present disclosure provides for identification of bacterial taxa that contain putative beta-glucuronidases. Using the method disclosed herein, bacteria are isolated by encapsulation in droplets of defined media with or without a specific xenobiotic. DNA is sampled from the encapsulated droplets at one or more set time points during incubation, and absolute growth is then computed as previously disclosed herein. […] To determine gut bacterial strain response to xenobiotics, gut bacteria were screened for beta-glucuronidases, which are present in bacteria that can inactivate certain man-made therapeutics. […] (FIG. 6). […] Thus, the assay identified bacterial taxa that contain putative beta-glucuronidases. Glucose and water are positive and negative controls, respectively. (FIG. 6).

[1] = tested on: B. thetaiotamicron (ATCC strain 29148); assay: Droplet monoculture growth on different carbon sources in defined medium (MicDrop); format: cell-based, Bacteroides thetaiotaomicron; details: for growth of the isolate in droplets compared to control defined medium without carbon source: B. theta isolate, defined medium with a single carbon source, endpoint DNA quantity (FIG. 4); for growth in droplets on carbohydrate (growth / no growth): B. thetaiotaomicron ATCC 29148 in microfluidic droplets, consistent with 96-well plates (FIG. 4)
Protocol: By using a defined media, a function of individual bacteria (in this case growth on a substrate of interest) can be determined. Bacteria were isolated from a fecal community of a healthy donor and cultured in defined medium. To identify carbon sources on which an individual isolated bacterium can grow, carbon sources of varying complexity were added individually to the defined media. Growth was measured at the endpoint, and the DNA was extracted, sequenced and quantified by qPCR as provided in Example 2. In this assay, the endpoint growth of an individual bacteria cultured in a defined medium with the addition of one carbon source was compared to the end point growth measurement of the same bacteria in the defined medium with only the addition of water. (FIG. 4). This comparison enables assessing the ability of an individual microbe to use a single carbon source for growth. As an example in FIG. 4, an isolate of the bacterial strain B. thetaiotamicron (ATCC® strain 29148) was cultured in droplets with defined medium containing the carbon source Pullalan, Levan, Lamanarin or no carbon source (control), and growth was compared. (FIG. 4). […] (FIG. 4). […] (FIG. 5).
(A) Microbial communities isolated from human stool samples were examined for carbon consumption in a custom microfluidic screen. Cells were restarted from frozen stock in mGAM (as above) and then minimal medium containing glucose and galactose (SIGMA®) as the sole carbon sources. Following determination of the loading concentration, the cell culture stocks were washed twice by centrifugation and resuspended in 2× minimal medium. Cells were filtered using a 50 μm filter (CELLTRICS®, SYSMEX®) to remove multi-cell clumps. The filtered cells suspension was then added to each sample formulation at the target concentration. Each sample was a 50:50 mixture of 1% carbon solution and 2× minimal medium. To prevent chip fouling, the oil inlet was equipped with 10 μm inline filters (P-276, IDEX®). Droplet generation in the anaerobic chamber was monitored using a bright field microscope (44347, CELESTRON®). Droplet cultures were stored 5 mL polypropylene tubes (352063, FALCON®) with the caps closed in an anaerobic incubator at 37° C. Following the second day of incubation, cultures were moved to a −20° C. freezer for storage prior to DNA extraction. Pre-processing of the droplet data designated samples with qPCR values below the mean no-carbon control as zero growth. Then, relative abundance data was converted to absolute abundance by multiplying each sample by the corresponding qPCR value. The median was then calculated across three replicate samples and matched no-carbon controls were subtracted from each sample. Finally, a growth threshold of 88% of maximum growth was applied, as determined from validation analysis (FIG. 15, Validation of prebiotic utilization assays)
To test whether the MicDrop method could be used to assay bacterial prebiotic metabolism (FIG. 12A), a previously characterized type strain Bacteroides thetaiotaomicron ATCC 29148 was loaded into microfluidic droplets and standard 96-well plates. Consistent with both prior studies and well-plate experiments disclosed herein, B. thetaiotaomicron ATCC 29148 grew in droplets on pullulan and levan, but not on lamanarin or a no carbohydrate control (FIG. 4). […] Using 96-well plate experiments as a reference (FIG. 12B, FIG. 18), the accuracy of the MicDrop prebiotic assay was determined to be 87% (Table 8). […]

Row | Compound | bacterial growth on substrate (gut bacteria) | growth of the isolate in droplets compared to control defined medium without carbon source [1] | growth in droplets on carbohydrate (growth / no growth) [1]
1 | O=C(O)[C@H]1O[C@@H](Oc2ccc([N+](=O)[O-])cc2)[C@H](O)[C@@H](O)[C@@H]1O [PNPG, 4-Nitrophenyl-Beta-D-glucuronic acid, reference compound] | bacterial growth |  | 
2 | O=C[C@H](O)[C@@H](O)[C@H](O)[C@H](O)C(=O)O [glucuronic acid] | bacterial growth |  | 
3 | lamanarin |  | the same or slightly worse | 
4 | levan |  | greater growth | grew
5 | pullulan [Pullalan] |  | greater growth | grew
